Publication PMC7930575, “Comparison of the Inhibitory Binding Modes Between the Planar Fascaplysin and Its Nonplanar Tetrahydro-β-carboline Analogs in CDK4” (Frontiers in Chemistry, 2021)
Like-named read-outs stand apart in the source and are kept apart here.

How the values were obtained:
[1] = MTT cytotoxicity assay, normal cells WI-38, 48 h; assay type: cell-based; conditions: human
Experimental: (§1) The cytotoxicity of the target compounds was evaluated via MTT assay; A549, HeLa, HepG2, and WI-38 were selected for the experiment; and the selected cell lines were purchased from Lanzhou Weihuan Biotechnology Development Co., Ltd. All cell lines were maintained in RPMI-1640 medium supplemented with 10% fetal calf serum under the environment of 5% CO2 concentration and 37°C. The incubated tumor cells were seeded in the prepared 96-well plates, respectively, to make them attach for 12 h. Afterward, the cells were processed with the synthesized compounds with different concentrations as well as fascaplysin as the reference group for 48 h. After 48 h, 10 μl of MTT solution (5 mg/ml in PBS) was added into each well and incubated for 4 h. Then, the medium was removed and 100 μl DMSO was added to dissolve the blue-colored formazan. The absorbance was detected at 570 nm by microplate reader to calculate the inhibition rate (%) and the IC50 was defined using GraphPad Prism Software (version 5.02) (shown in Table 1).

[2] = test system: HepG2; test: MTT cytotoxicity assay, HepG2 cells, 48 h; assay type: cell-based; conditions: Homo sapiens, read-out: Cytotoxicity (IC50, μM) HepG2
Experimental: as §1

[3] = test system: HeLa; test: MTT cytotoxicity assay, HeLa cells, 48 h; assay type: cell-based; conditions: Homo sapiens, read-out: Cytotoxicity (IC50, μM) HeLa
Experimental: as §1

[4] = test system: A549; test: MTT cytotoxicity assay, A549 cells, 48 h; assay type: cell-based; conditions: Homo sapiens, read-out: Cytotoxicity (IC50, μM) A549
Experimental: as §1

[5] = target: T1, CDK4/CycD3 (Homo sapiens, UniProt P11802); test: CDK4 kinase inhibition assay (mobility shift assay); assay type: biochemical; conditions: mean of three independent experiments
T1 construct: purchased Cama
Experimental: In this study, the inhibitory activities of the synthesized compounds against CDK4/CycD3 were also evaluated using mobility shift assay, and fascaplysin was used as the positive control compound. CDK4/CycD3 was from Cama, kinase substrate peptide was from GL, and fascaplysin was from Selleckchem. First, the kinase base buffer should be prepared (50.0 mmol/L HEPES, pH 7.5, 5 mM MgCl2, 1 mmol DTT, 0.0015% Brij-35). Second, 50 μg CDK4 kinase was added to the kinase base buffer to prepare the kinase solution. The kinase base buffer was used to prepare ATP and substrate peptide solutions, and the obtained solutions were mixed. Third, the synthesized compounds as well as the fascaplysin were diluted with DMSO to the desired concentrations. Fourth, the reaction mixture was incubated at 30°C for 40 min, and 25 μl stop buffer was added to stop the reaction. Finally, conversion was read by Caliper, and GraphPad Prism 5.0 was used to calculate the IC50 values of the compounds against enzyme bioactivities (Table 2).

[6] = WI-38 cells (normal cell line), normal cell line, MTT assay, 48 h, three independent experiments, read-out: Cytotoxicity (IC50, μM) WI-38
[7] = HepG2, MTT assay, 48 h, three independent experiments
[8] = MTT assay, three independent experiments
[9] = A549, MTT assay, 48 h, three independent experiments

T1 sequence (P11802 whole entry): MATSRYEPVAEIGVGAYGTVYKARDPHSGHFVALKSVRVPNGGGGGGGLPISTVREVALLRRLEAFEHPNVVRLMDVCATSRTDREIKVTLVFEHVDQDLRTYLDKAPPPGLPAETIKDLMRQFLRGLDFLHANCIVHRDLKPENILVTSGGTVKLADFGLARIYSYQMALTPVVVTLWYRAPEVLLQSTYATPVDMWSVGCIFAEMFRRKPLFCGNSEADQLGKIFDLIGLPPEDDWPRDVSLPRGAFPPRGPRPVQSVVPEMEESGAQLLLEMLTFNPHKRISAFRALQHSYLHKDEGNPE
T1 sequence (P30281 whole entry partner): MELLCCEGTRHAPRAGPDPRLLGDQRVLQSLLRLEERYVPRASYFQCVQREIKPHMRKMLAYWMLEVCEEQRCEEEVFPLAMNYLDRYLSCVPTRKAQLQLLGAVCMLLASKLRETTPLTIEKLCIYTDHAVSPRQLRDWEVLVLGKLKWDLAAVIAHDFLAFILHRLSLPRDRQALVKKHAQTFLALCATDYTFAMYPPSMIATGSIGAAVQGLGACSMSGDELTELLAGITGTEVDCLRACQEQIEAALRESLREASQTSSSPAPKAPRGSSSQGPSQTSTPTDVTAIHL

Row | Compound | IC50 at 48 h [1, 6] | IC50 [2, 7] | melting point | IC50 [3, 8] | IC50 [4, 9] | IC50 [5] | IC50 at 48 h [1] | IC50 ([2]; HepG2, 48 h) | IC50 [3] | IC50 ([4]; A549, 48 h)
1 | COC(=O)C1c2[nH]c3ccccc3c2CCN1C(=O)c1ccc(F)cc1 (stereo not drawn) [Compound 6a, Methyl-2-(4-fluorobenzoyl)-2,3,4,9-tetrahydro-1H-pyrido [3,4-b] indole-1-carboxylate] | 253 ± 33.2 µM | 31.6 ± 2.53 µM | 182.8 to 183.7 °C | 28.4 ± 1.12 µM | 38.3 ± 2.53 µM | 29.6 µM |  |  |  | 
2 | COC(=O)C1c2[nH]c3ccccc3c2CCN1C(=O)c1ccc(OC)cc1 (stereo not drawn) [Compound 6b, Methyl-2-(4-methoxybenzoyl)-2,3,4,9-tetrahydro-1H-pyrido [3,4-b] indole-1-carboxylate] | 267 ± 28.9 µM | 26.3 ± 1.88 µM | 200.8 to 201.6 °C | 14.1 ± 2.69 µM | 13.2 ± 1.21 µM | 25.7 µM |  |  |  | 
3 | COC(=O)C1c2[nH]c3ccccc3c2CCN1C(=O)c1ccc(-c2ccccc2)cc1 (stereo not drawn) [Compound 6c, Methyl-2-([1, 1’-biphenyl]-4-carbonyl)-2,3,4,9-tetrahydro-1H-pyrido [3,4-b] indole-1 carboxylate] | 312 ± 56.1 µM | 5.21 ± 0.58 µM | 177.8 to 179.6 °C | 1.03 ± 0.19 µM | 6.53 ± 1.65 µM | 1.89 µM |  |  |  | 
4 | COC(=O)C1c2[nH]c3ccccc3c2CCN1C(=O)c1ccc(I)cc1 (stereo not drawn) [Compound 6d, Methyl-2-(4-iodobenzoyl)-2,3,4,9-tetrahydro-1H-pyrido [3,4-b] indole-1-carboxylate] | 373 ± 62.8 µM | 33.4 ± 5.18 µM | 195.6 to 196.5 °C | 19.4 ± 2.56 µM | 10.8 ± 1.17 µM | 30.3 µM |  |  |  | 
5 | COC(=O)C1c2[nH]c3ccccc3c2CCN1C(=O)c1ccccc1 (stereo not drawn) [Compound 6e, Methyl-2-benzoyl-2,3,4,9-tetrahydro-1H-pyrido [3,4-b] indole-1-carboxylate] | 118 ± 12.9 µM | 31.8 ± 2.86 µM |  | 16.8 ± 4.12 µM | 15.5 ± 1.26 µM | 20.7 µM |  |  |  | 
6 | COC(=O)C1c2[nH]c3ccccc3c2CCN1C(=O)c1ccc(C(F)(F)F)cc1 (stereo not drawn) [Compound 6f, Methyl-2-(4-(trifluoromethyl)benzoyl)-2,3,4,9-tetrahydro-1H-pyrido [3,4-b] indole-1-carboxylate] | 125 ± 26.1 µM | 35.8 ± 3.23 µM | 193.3 to 194.36 °C | 29.9 ± 4.73 µM | 38.7 ± 7.25 µM | 39.6 µM |  |  |  | 
7 | COC(=O)C1c2[nH]c3ccccc3c2CCN1C(=O)c1ccc(Cl)cc1 (stereo not drawn) [Compound 6g, Methyl 2-(4-chlorobenzoyl)-2,3,4,9-tetrahydro-1H-pyrido[3,4-b] indole-1-carboxylate] | 375 ± 60 µM | 13.7 ± 2.13 µM | 200.3 to 201.5 °C | 22.9 ± 2.31 µM | 25.7 ± 8.78 µM | 27.5 µM |  |  |  | 
8 | COC(=O)C1c2[nH]c3ccccc3c2CCN1C(=O)c1ccc2ccccc2c1 (stereo not drawn) [Compound 6h, Methyl-2-(2-naphthoyl)-2,3,4,9-tetrahydro-1H-pyrido [3,4-b] indole-1-carboxylate] | 186 ± 12.4 µM | 19.5 ± 0.43 µM | 183.6 to 184.5 °C | 10.8 ± 2.69 µM | 12.7 ± 1.2 µM | 12.4 µM |  |  |  | 
9 | COC(=O)C1c2[nH]c3ccccc3c2CCN1C(=O)c1ccc2c(c1)OCO2 (stereo not drawn) [Compound 6i, Methyl-2-(benzo [d] [1,3]dioxole-5-carbonyl)-2,3,4,9-tetrahydro-1H-pyrido [3,4-b] indole-1-carboxylate] | 247 ± 10.9 µM | 12.2 ± 3.01 µM | 165.3 to 166.7 °C | 3.57 ± 0.93 µM | 9.6 ± 3.22 µM | 3.38 µM |  |  |  | 
10 | CCOC(=O)C1c2[nH]c3ccccc3c2CCN1C(=O)c1ccc(F)cc1 (stereo not drawn) [Compound 7a, Ethyl-2-(4-fluorobenzoyl)-2,3,4,9-tetrahydro-1H-pyrido [3,4-b] indole-1-carboxylate] | 255 ± 86.3 µM | 47.5 ± 4.11 µM | 199.5 to 201.7 °C | 29.6 ± 7.07 µM | 39.5 ± 4.98 µM | 31.6 µM |  |  |  | 
11 | CCOC(=O)C1c2[nH]c3ccccc3c2CCN1C(=O)c1ccc(OC)cc1 (stereo not drawn) [Compound 7b, Ethyl-2-(4-methoxybenzoyl)-2,3,4,9-tetrahydro-1H-pyrido [3,4-b] indole-1-carboxylate] | 429 ± 38.9 µM | 41.5 ± 2.42 µM | 206.9 to 209.8 °C | 15.4 ± 3.1 µM | 15.5 ± 13.4 µM | 30.7 µM |  |  |  | 
12 | CCOC(=O)C1c2[nH]c3ccccc3c2CCN1C(=O)c1ccc(-c2ccccc2)cc1 (stereo not drawn) [Compound 7c, Ethyl 2-([1, 1’-biphenyl]-4-carbonyl)-2,3,4,9-tetrahydro-1H-pyrido [3,4-b] indole-1 carboxylate] | 281 ± 7.81 µM | 10.8 ± 1.49 µM | 201.4 to 201.8 °C | 4.71 ± 0.7 µM | 10.5 ± 1.5 µM | 4.89 µM |  |  |  | 
13 | CCOC(=O)C1c2[nH]c3ccccc3c2CCN1C(=O)c1ccc(I)cc1 (stereo not drawn) [Compound 7d, Ethyl-2-(4-iodobenzoyl)-2,3,4,9-tetrahydro-1H-pyrido[3,4-b] indole-1-carboxylate] | 183 ± 17.9 µM | 28.2 ± 0.95 µM | 175.6 to 176.3 °C | 27.6 ± 2.38 µM | 20.4 ± 2.68 µM | 35.3 µM |  |  |  | 
14 | CCOC(=O)C1c2[nH]c3ccccc3c2CCN1C(=O)c1ccccc1 (stereo not drawn) [Compound 7e, Ethyl-2-benzoyl-2,3,4,9-tetrahydro-1H-pyrido [3,4-b] indole-1-carboxylate] | 99.8 ± 9.97 µM | 21.4 ± 1.69 µM | 196.5 to 198.6 °C | 19.9 ± 2.45 µM | 27.3 ± 6.5 µM | 29.7 µM |  |  |  | 
15 | CCOC(=O)C1c2[nH]c3ccccc3c2CCN1C(=O)c1ccc(C(F)(F)F)cc1 (stereo not drawn) [Compound 7f, Ethyl-2-(4-(trifluoromethyl)benzoyl)-2,3,4,9-tetrahydro-1H-pyrido [3,4-b] indole-1-carboxylate] | 183 ± 17.9 µM | 16.2 ± 3.72 µM |  | 47 ± 4.8 µM | 42.1 ± 7.6 µM | 43.9 µM |  |  |  | 
16 | CCOC(=O)C1c2[nH]c3ccccc3c2CCN1C(=O)c1ccc(Cl)cc1 (stereo not drawn) [Compound 7g, Ethyl-2-(4-chlorobenzoyl)-2,3,4,9-tetrahydro-1H-pyrido[3,4-b] indole-1-carboxylate] | 200 ± 9.97 µM | 41.4 ± 1.69 µM | 232.3 to 233.5 °C | 24.9 ± 3.44 µM | 27.3 ± 2.4 µM | 30.4 µM |  |  |  | 
17 | CCOC(=O)C1c2[nH]c3ccccc3c2CCN1C(=O)c1ccc2ccccc2c1 (stereo not drawn) [Compound 7h, Ethyl-2-(2-naphthoyl)-2,3,4,9-tetrahydro-1H-pyrido [3,4-b] indole-1-carboxylate] | 183 ± 13.2 µM | 17.5 ± 13.8 µM | 209.6 to 211.5 °C | 16.5 ± 6.64 µM | 25.5 ± 3.92 µM | 16.4 µM |  |  |  | 
18 | CCOC(=O)C1c2[nH]c3ccccc3c2CCN1C(=O)c1ccc2c(c1)OCO2 (stereo not drawn) [Compound 7i, Ethyl-2-(benzo [d] [1,3]dioxole-5-carbonyl)-2,3,4,9-tetrahydro-1H-pyrido [3,4-b] indole-1-carboxylate] | 256 ± 56 µM | 23.2 ± 9.17 µM | 202.5 to 204.6 °C | 6.18 ± 2.78 µM | 20 ± 5.57 µM | 9.38 ± 1.79 µM |  |  |  | 
19 | O=C1c2ccccc2-[n+]2ccc3c([nH]c4ccccc43)c21 [Fascaplysin] |  |  |  |  |  | 0.79 ± 0.72 µM | 1.86 ± 0.17 µM | 0.24 ± 0.04 µM | 0.56 ± 0.05 µM | 1.05 ± 0.08 µM
